In PubChem BioAssay (NCI):
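At the GI50, growth is halved. TGI denotes the concentration required for complete inhibition of growth.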

Key:
Assay in all cases: NCI-60 cell line screen, 384-well format
786-0 renal = test system: 786-0 renal
A498 renal = test system: A498 renal
A549 NSCLC = test system: A549 NSCLC
ACHN renal = test system: ACHN renal
BT-549 breast = test system: BT-549 breast
CAKI-1 renal = test system: CAKI-1 renal
CCRF-CEM leukemia = test system: CCRF-CEM leukemia
COLO 205 colon = test system: COLO 205 colon
DU-145 prostate = test system: DU-145 prostate
EKVX NSCLC = test system: EKVX NSCLC
HCC-2998 colon = test system: HCC-2998 colon
HCT-116 colon = test system: HCT-116 colon
HCT-15 colon = test system: HCT-15 colon
HL-60(TB) leukemia = test system: HL-60(TB) leukemia
HOP-62 NSCLC = test system: HOP-62 NSCLC
HOP-92 NSCLC = test system: HOP-92 NSCLC
HS 578T breast = test system: HS 578T breast
HT29 colon = test system: HT29 colon
IGROV1 ovarian = test system: IGROV1 ovarian
K-562 leukemia = test system: K-562 leukemia
KM12 colon = test system: KM12 colon
LOX IMVI melanoma = test system: LOX IMVI melanoma
M14 melanoma = test system: M14 melanoma
MALME-3M melanoma = test system: MALME-3M melanoma
MCF7 breast = test system: MCF7 breast
MDA-MB-231 breast = test system: MDA-MB-231 breast
MDA-MB-435 melanoma = test system: MDA-MB-435 melanoma
MDA-MB-468 breast = test system: MDA-MB-468 breast
MOLT-4 leukemia = test system: MOLT-4 leukemia
NCI-H226 lung = test system: NCI-H226 lung
NCI-H23 lung = test system: NCI-H23 lung
NCI-H322M lung = test system: NCI-H322M lung
NCI-H460 NSCLC = test system: NCI-H460 NSCLC
NCI-H522 lung = test system: NCI-H522 lung
NCI/ADR-RES ovarian = test system: NCI/ADR-RES ovarian
OVCAR-3 ovarian = test system: OVCAR-3 ovarian
OVCAR-4 ovarian = test system: OVCAR-4 ovarian
OVCAR-5 ovarian = test system: OVCAR-5 ovarian
PC-3 prostate = test system: PC-3 prostate
RPMI-8226 leukemia = test system: RPMI-8226 leukemia
RXF 393 renal = test system: RXF 393 renal
SF-268 CNS = test system: SF-268 CNS
SF-295 CNS = test system: SF-295 CNS
SF-539 CNS = test system: SF-539 CNS
SK-MEL-2 melanoma = test system: SK-MEL-2 melanoma
SK-MEL-28 melanoma = test system: SK-MEL-28 melanoma
SK-MEL-5 melanoma = test system: SK-MEL-5 melanoma
SK-OV-3 ovarian = test system: SK-OV-3 ovarian
SN12C renal = test system: SN12C renal
SNB-19 CNS = test system: SNB-19 CNS
SNB-75 CNS = test system: SNB-75 CNS
SR leukemia = test system: SR leukemia
SW-620 colon = test system: SW-620 colon
T-47D breast = test system: T-47D breast
TK-10 renal = test system: TK-10 renal
U251 glioblastoma = test system: U251 glioblastoma
UACC-257 melanoma = test system: UACC-257 melanoma
UACC-62 melanoma = test system: UACC-62 melanoma
UO-31 renal = test system: UO-31 renal

O=[N+]([O-])c1ccc(Nc2ccccc2-c2ccccc2)c2nonc12
GI50 ([…]-0 renal): 12.6 µM
TGI (786-0 renal): 25.6 µM
GI50 (A498 renal): 14.9 µM
TGI (A498 renal): 32.3 µM
GI50 (A549 NSCLC): 14.1 µM
TGI (A549 NSCLC): 30.9 µM
GI50 (ACHN renal): 15.6 µM
TGI (ACHN renal): 34.2 µM
GI50 (BT-549 breast): 17.1 µM
TGI (BT-549 breast): 32.2 µM
GI50 (CAKI-1 renal): 14.5 µM
TGI (CAKI-1 renal): 33.3 µM
GI50 (CCRF-CEM leukemia): 11.3 µM
TGI (CCRF-CEM leukemia): 23.6 µM
GI50 (COLO 205 colon): 17.5 µM
TGI (COLO 205 colon): 42.3 µM
GI50 (DU-145 prostate): 16.3 µM
TGI (DU-145 prostate): 51.2 µM
GI50 (EKVX NSCLC): 13.2 µM
TGI (EKVX NSCLC): 30 µM
GI50 (HCC-2998 colon): 22.3 µM
TGI (HCC-2998 colon): 40.8 µM
GI50 (HCT-116 colon): 13.9 µM
TGI (HCT-116 colon): 28.2 µM
GI50 (HCT-15 colon): 14.3 µM
TGI (HCT-15 colon): 29.2 µM
GI50 (HL-60(TB) leukemia): 13.3 µM
TGI (HL-60(TB) leukemia): 26.5 µM
GI50 (HOP-62 NSCLC): 13.7 µM
TGI (HOP-62 NSCLC): 28.4 µM
GI50 (HOP-92 NSCLC): 10.5 µM
TGI (HOP-92 NSCLC): 24.8 µM
GI50 (HS 578T breast): 10.4 µM
TGI (HS 578T breast): 23.8 µM
GI50 (HT29 colon): 15.9 µM
TGI (HT29 colon): 33.8 µM
GI50 (IGROV1 ovarian): 16.1 µM
TGI (IGROV1 ovarian): 36.2 µM
GI50 (K-562 leukemia): 11.5 µM
TGI (K-562 leukemia): 28.6 µM
GI50 (KM12 colon): 16.4 µM
TGI (KM12 colon): 33 µM
GI50 (LOX IMVI melanoma): 15.9 µM
TGI (LOX IMVI melanoma): 29.7 µM
GI50 (M14 melanoma): 13.9 µM
TGI (M14 melanoma): 30.9 µM
GI50 (MALME-3M melanoma): 16.8 µM
TGI (MALME-3M melanoma): 36.3 µM
GI50 (MCF7 breast): 13.8 µM
TGI (MCF7 breast): 31.3 µM
GI50 (MDA-MB-231 breast): 16.2 µM
TGI (MDA-MB-231 breast): 35.1 µM
GI50 (MDA-MB-435 melanoma): 10.7 µM
TGI (MDA-MB-435 melanoma): 30.1 µM
GI50 (MDA-MB-468 breast): 3.96 µM
TGI (MDA-MB-468 breast): 15.4 µM
GI50 (MOLT-4 leukemia): 12.8 µM
TGI (MOLT-4 leukemia): 25.6 µM
GI50 (NCI-H226 lung): 11.2 µM
TGI (NCI-H226 lung): 23.6 µM
GI50 (NCI-H23 lung): 5.93 µM
TGI (NCI-H23 lung): 20.5 µM
GI50 (NCI-H322M lung): 17.5 µM
TGI (NCI-H322M lung): 37.3 µM
GI50 (NCI-H460 NSCLC): 11 µM
TGI (NCI-H460 NSCLC): 24.1 µM
GI50 (NCI-H522 lung): 9.27 µM
TGI (NCI-H522 lung): 22.9 µM
GI50 (NCI/ADR-RES ovarian): 12.7 µM
TGI (NCI/ADR-RES ovarian): 27.9 µM
GI50 (OVCAR-3 ovarian): 11.9 µM
TGI (OVCAR-3 ovarian): 25.1 µM
GI50 (OVCAR-4 ovarian): 7.68 µM
TGI (OVCAR-4 ovarian): 28.4 µM
GI50 (OVCAR-5 ovarian): 15.8 µM
TGI (OVCAR-5 ovarian): 36.9 µM
GI50 (PC-3 prostate): 12.8 µM
TGI (PC-3 prostate): 27 µM
GI50 (RPMI-8226 leukemia): 7.48 µM
TGI (RPMI-8226 leukemia): 20 µM
GI50 (RXF 393 renal): 17.4 µM
TGI (RXF 393 renal): 32.2 µM
GI50 (SF-268 CNS): 15.6 µM
TGI (SF-268 CNS): 34.1 µM
GI50 (SF-295 CNS): 10.1 µM
TGI (SF-295 CNS): 22.9 µM
GI50 (SF-539 CNS): 17.4 µM
TGI (SF-539 CNS): 33.2 µM
GI50 (SK-MEL-2 melanoma): 23 µM
TGI (SK-MEL-2 melanoma): 37.9 µM
GI50 (SK-MEL-28 melanoma): 13.2 µM
TGI (SK-MEL-28 melanoma): 29.7 µM
GI50 (SK-MEL-5 melanoma): 12.9 µM
TGI (SK-MEL-5 melanoma): 25.7 µM
GI50 (SK-OV-3 ovarian): 19.9 µM
TGI (SK-OV-3 ovarian): 40.4 µM
GI50 (SN12C renal): 11.9 µM
TGI (SN12C renal): 28.6 µM
GI50 (SNB-19 CNS): 12.9 µM
TGI (SNB-19 CNS): 35.1 µM
GI50 (SNB-75 CNS): 14.1 µM
TGI (SNB-75 CNS): 34 µM
GI50 (SR leukemia): 19 µM
TGI (SR leukemia): 33.3 µM
GI50 (SW-620 colon): 16.4 µM
TGI (SW-620 colon): 35.7 µM
GI50 (T-47D breast): 7.99 µM
TGI (T-47D breast): 30.9 µM
GI50 (TK-10 renal): 14 µM
TGI (TK-10 renal): 34.8 µM
GI50 (U251 glioblastoma): 11.2 µM
TGI (U251 glioblastoma): 25.7 µM
GI50 (UACC-257 melanoma): 16.5 µM
TGI (UACC-257 melanoma): 36.1 µM
GI50 (UACC-62 melanoma): 13.6 µM
TGI (UACC-62 melanoma): 28.3 µM
GI50 (UO-31 renal): 13 µM
TGI (UO-31 renal): 27.5 µM
